Laboratory results published in patent publication US20130295173A1, “COMPOSITIONS OF STATINS AND OMEGA-3 FATTY ACIDS” (OMTHERA PHARMACEUTICALS, INC., priority 2012, published 2013).

Key:
[1] = Stability testing of statins dissolved in PUFA free acid solvent system; format: physicochemical; details: 25° C., 60% RH; for Statin in Oil: PUFA free acid solvent system; for Statin in Oil, Percent: share of total statin
Protocol: The compositions were then mixed until full dissolution was observed, using a magnetic stir bar and sonication for 30-60 second intervals, taking care to maintain a nitrogen headspace over the solution throughout processing. […] Vials were covered with foil to protect from light and stored at 25° C., 60% RH. One vial of each of the three compositions was retrieved at each timepoint for testing. Procedures as listed in the USP Monograph for Omega-3-Acid Ethyl Ester Capsules were followed for measuring quantities of acid value, peroxide value, and absorbance for fats and fixed oils.

[2] = Comparison of solubility of statins in PUFA free acid solvent system and Lovaza ethyl ester solvent system, HPLC assay of supernatant
Protocol: For this study, ten vials were prepared such that 5 vials contained 2 mL of Lovaza oil and 5 vials contained 2 mL of PUFA free acid solvent system. About 20 mg of each statin were added to one Lovaza oil vial and to one PUFA free acid solvent system vial. Vials containing the samples were blanketed with nitrogen, then sealed. The vials were then sonicated for 1 hour or until contents appeared clear. After sonication, vials which remained clear received additional 20 mg aliquots of their respective statin and were again blanketed with nitrogen. […] The samples were centrifuged and the supernatant was assayed for the respective statin by HPLC.

[3] = Initial solubility of statins in PUFA free acid solvent system (batch #37225); format: physicochemical
[4] = Solubility of statins in various pH buffers

Structure (SMILES): CC(C)c1c(C(=O)Nc2ccccc2)c(-c2ccccc2)c(-c2ccc(F)cc2)n1CC[C@@H](O)C[C@@H](O)CC(=O)[O-].CC(C)c1c(C(=O)Nc2ccccc2)c(-c2ccccc2)c(-c2ccc(F)cc2)n1CC[C@@H](O)C[C@@H](O)CC(=O)[O-].[Ca+2] [Atorvastatin Calcium, atorvastatin calcium]
- Statin in Oil ([1]; t = 0): 8.738 mg/g
- Statin in Oil, Percent ([1]; t = 0): 100%
- Statin in Oil ([1]; t = 1 week): 8.275 mg/g
- Statin in Oil, Percent ([1]; t = 1 week): 100%
- Statin in Oil ([1]; t = 2 week): 7.839 mg/g
- Statin in Oil, Percent ([1]; t = 2 week): 100%

Structure (SMILES): O=C([O-])C[C@H](O)C[C@H](O)/C=C/c1c(C2CC2)nc2ccccc2c1-c1ccc(F)cc1.O=C([O-])C[C@H](O)C[C@H](O)/C=C/c1c(C2CC2)nc2ccccc2c1-c1ccc(F)cc1.[Ca+2] [Pitavastatin Calcium, pitavastatin calcium]
- Solubility in Lovaza (ethyl ester) Solvent System [2]: 0.615 mg/g
- Solubility in PUFA Free Acid Solvent System [2]: 12.771 mg/g

Structure (SMILES): CC[C@H](C)C(=O)O[C@H]1C[C@H](O)C=C2C=C[C@H](C)[C@H](CC[C@@H](O)C[C@@H](O)CC(=O)O)[C@H]21 [Pravastatin Sodium, pravastatin sodium]
- Solubility in Lovaza (ethyl ester) Solvent System [2]: 0.000 mg/g
- Solubility in PUFA Free Acid Solvent System [2]: 42.357 mg/g
- Appearance of vial after sonication ([2]; PUFA free acid solvent, 2 mL, after the addition of about 313 mg): still remained clear

Structure (SMILES): CC(C)c1nc(N(C)S(C)(=O)=O)nc(-c2ccc(F)cc2)c1/C=C/[C@@H](O)C[C@@H](O)CC(=O)[O-].CC(C)c1nc(N(C)S(C)(=O)=O)nc(-c2ccc(F)cc2)c1/C=C/[C@@H](O)C[C@@H](O)CC(=O)[O-].[Ca+2] [Rosuvastatin Calcium, rosuvastatin calcium]
- Statin in Oil ([1]; t = 0): 6.481 mg/g
- Statin in Oil, Percent ([1]; t = 0): 100%
- Statin in Oil ([1]; t = 1 week): 6.416 mg/g
- Statin in Oil, Percent ([1]; t = 1 week): 100%
- Statin in Oil ([1]; t = 2 week): 6.505 mg/g
- Statin in Oil, Percent ([1]; t = 2 week): 100%
- Initial solubility in PUFA free acid solvent system, Concentration [3]: 12.70 mg/mL
- Solubility in Lovaza (ethyl ester) Solvent System [2]: 0.001 mg/g
- Solubility in PUFA Free Acid Solvent System [2]: 12.700 mg/g
- Solubility ([4]; 0.1N HCl (pH 1.2), T = 0): 0.223
- Solubility ([4]; 0.1N HCl (pH 1.2), T = 1 Week): 0.104
- Solubility ([4]; 0.1N NaOH, T = 0): 8.058
- Solubility ([4]; 0.1N NaOH, T = 1 Week): 0.018
- Solubility ([4]; Water, T = 0 (after sitting overnight)): 7.08
- Solubility ([4]; Water, T = 1 Week): 8.822
- pH of maximal solubility ([4]; aqueous pH buffers): ~7.0
- Aqueous solubility (in words) ([4]; overall across aqueous solutions, rosuvastatin at time zero): significant aqueous solubility
- Solubility ([4]; pH 2.2 acid phthalate buffer, T = 0): 0.773
- Solubility ([4]; pH 2.2 acid phthalate buffer, T = 1 Week): 9.343
- Solubility ([4]; pH 4.0 acid phthalate buffer, T = 0): 1.901
- Solubility ([4]; pH 4.0 acid phthalate buffer, T = 1 Week): 0.002
- Solubility ([4]; pH 5.0 neutralized phthalate buffer, T = 0): 4.188
- Solubility ([4]; pH 5.0 neutralized phthalate buffer, T = 1 Week): 4.790
- Solubility ([4]; pH 7.0 phosphate buffer, T = 0): 7.963
- Solubility ([4]; pH 7.0 phosphate buffer, T = 1 Week): 10.654
- Solubility ([4]; pH 9.0 alkaline borate buffer, T = 0): 4.571
- Solubility ([4]; pH 9.0 alkaline borate buffer, T = 1 Week): 4.712
